Literature values, collected in patent publication US7470509B2, “Compositions and methods for the identification, assessment, prevention and therapy of ovarian cancer” (Millennium Pharmaceuticals, Inc., priority 2002, dated 2008).

System: tumor
Settings: U.S. Pat. No. 5,840,929

SMILES: CC(=O)O[C@@]12CO[C@@H]1C[C@H](O)[C@@]1(C)C(=O)[C@H](O)C3=C(C)[C@@H](OC(=O)[C@H](O)[C@@H](NC(=O)OC(C)(C)C)c4ccccc4)C[C@@](O)([C@@H](OC(=O)c4ccccc4)[C@H]21)C3(C)C [Taxotere, docetaxel]
- anti-tumor activity in animal models: good anti-tumor activity
